This note sets out measurements from patent US10858316B2, “Small molecule inhibitors of the MCL-1 oncoprotein and uses thereof” (University of Maryland, Baltimore, priority 2015, dated 2020).

Values joined by “and” are separate entries in the source; they are usually repeats but may differ in a detail not shown here. Equal entries are not always repeated. Where two headings read alike, the source gives them in different places.

For assay [1], the target named is Mcl-1 (Homo sapiens (Human), UniProt Q07820). Nature of the assay: Fluorescence polarization competition assay (FPCA), Mcl-1 / FITC-Bak BH3 peptide. It is filed as binding. The settings on record: for Mcl-1 Exp ΔG: ΔG=−RTlnKi from experimental Ki. From the text:
The tagged protein was initially purified from the crude cell lysate by immobilized metal affinity chromatography (IMAC) chromatography (GE Healthcare Life Sciences), and after dialysis to remove the imidazole the affinity tag was cleaved using PreScission Protease (GE Healthcare Life Sciences). A Sephacryl S-200 size exclusion column was used as a final purification step before the protein was concentrated with a 10,000 MWCO centifugal filter concentrator (Millipore).
(§1) Fluorescence polarization experiments were conducted using a BMG PHERAstar FS multimode microplate reader equipped with two PMTs for simultaneous measurements of the perpendicular and parallel fluorescence emission. The assays were performed in black polypropylene 384-well microplate (Costar) with a final volume of 20 microliter. […] Regression analysis was carried out using Origin (OriginLab, Northampton, Mass.) to fit the data to the Hill equation (1) to determine the initial binding affinity (KD) and the IC50 in the FPCA. For the fluorescence polarization competition titrations, an equation derived by Nikolovska-Coleska et al. was used to calculate the Ki from the IC50 data.
The target molecules were assayed for their abilities to disrupt the Mcl-1-Bak-BH3 PPI in a fluorescence polarization competition (FPC) assay with Mcl-1 and FITC-labeled Bak-BH3 peptide. Further details on the FPC assay can be found in the Supporting Information.
(In general: Fluorescence polarisation rises when a labelled molecule tumbles more slowly, as on binding a larger partner.)

Assay [2] concerns the target Bcl-xL (Homo sapiens (Human), UniProt Q07817). Nature of the assay: Fluorescence polarization competition assay, Bcl-xL. It is filed as binding. The settings on record: for Ki: Ki from IC50 by Nikolovska-Coleska equation, NA = no activity, read-out: Bcl-xL Ki; for Bcl-xL Exp ΔG: ΔG from experimental Ki. How it is done:
as §1

Where [3] appears, read: FPCA with FITC-Bak, Ki from IC50 by Nikolovska-Coleska equation, read-out: Mcl-1 Ki.

Bcl-xL, sequence (Q07817 whole entry): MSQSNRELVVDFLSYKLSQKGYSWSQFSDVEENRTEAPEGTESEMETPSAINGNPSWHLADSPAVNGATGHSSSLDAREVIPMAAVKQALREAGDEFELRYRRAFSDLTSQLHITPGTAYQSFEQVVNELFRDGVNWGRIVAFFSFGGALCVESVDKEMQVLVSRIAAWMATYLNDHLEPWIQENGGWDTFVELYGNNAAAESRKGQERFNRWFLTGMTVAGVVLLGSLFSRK
Mcl-1, sequence (Q07820 172-327): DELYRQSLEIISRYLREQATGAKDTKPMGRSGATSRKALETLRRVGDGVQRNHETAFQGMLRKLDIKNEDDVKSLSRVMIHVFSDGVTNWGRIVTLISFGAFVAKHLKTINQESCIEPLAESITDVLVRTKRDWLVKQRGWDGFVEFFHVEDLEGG

As to `Cc1cc(CCCNc2ccc(C(=O)O)c(O)c2)cc(C)c1Cl` [LC-5-184 36], the figures for the Ki in assay [1] (setting [3]) and in assay [2] were 15.2 ± 1.89 µM and 22.7 ± 4.08 µM, respectively.
With `Cc1cc(Oc2ccc(S(=O)(=O)N(Cc3ccccc3)c3ccc(O)c(C(=O)O)c3)cc2)cc(C)c1Cl` [LC-5-129 29], the Ki was determined as 1.4 ± 0.47 µM in assay [1] (setting [3]) and 1.82 ± 0.234 µM in assay [2].
In the case of `CS(=O)(=O)NC(=O)c1ccc(N(Cc2ccccc2)S(=O)(=O)c2ccc(Oc3ccccc3)cc2)cc1O` [LC-5-112 27], the figures for the Ki in assay [1] (setting [3]) and in assay [2] were 2.94 ± 0.35 µM and 7.22 ± 1.07 µM, respectively.
As to `Cc1cc(Oc2ccc(S(=O)(=O)N(c3ccc(C(=O)O)c(O)c3)C3CCCC3)cc2)cc(C)c1Cl` [LC-4-104 13bc], the Ki in assay [1] (setting [3]) worked out at 1.76 ± 0.208 µM; in assay [2], 1.91 ± 0.117 µM.
For the molecule `CC(C)CN(c1ccc(O)c(C(=O)O)c1)S(=O)(=O)c1ccc2ccccc2c1` [jy-5-299 18bb], the results for the Ki in assay [1] (setting [3]) and in assay [2] were 7.51 ± 0.84 µM and 44.6 ± 5.93 µM, respectively.
Regarding `O=C(NS(=O)(=O)c1ccc(NCC2CCOCC2)c([N+](=O)[O-])c1)c1ccc(N(Cc2ccccc2)S(=O)(=O)c2ccc(Oc3ccccc3)cc2)cc1O` [LC-5-107 30], the Ki in assay [1] (setting [3]) was found to be 1.23 ± 0.152 µM; in assay [2], 1.05 ± 0.146 µM.
On to `O=C(NS(=O)(=O)c1ccccc1)c1ccc(N(Cc2ccccc2)S(=O)(=O)c2ccc(Oc3ccccc3)cc2)cc1O` [LC-5-096 28], for which the Ki in assay [1] (setting [3]) is 1.9 µM and 1.95 µM; in assay [2], 2.34 ± 0.221 µM.
Consider `Cc1cc(Oc2ccc(S(=O)(=O)N(Cc3ccccc3)c3ccc(O)c(C(=O)NS(=O)(=O)c4ccc(NCC5CCOCC5)c([N+](=O)[O-])c4)c3)cc2)cc(C)c1Cl` [LC-5-132 33], for which the inhibition constant (Ki) in assay [1] (setting [3]) was determined as 1.01 ± 0.08 µM; in assay [2], 1.54 ± 0.226 µM.
`CC(C)CN(c1ccc(O)c(C(=O)O)c1)S(=O)(=O)c1ccc(-c2ccccc2)cc1` [JY-5-300 18bc]: the Ki was determined as 8.7 ± 2.05 µM in assay [1] (setting [3]) and 13.9 ± 3.36 µM in assay [2].
In the case of `CC(C)CN(c1ccc(C(=O)O)c(O)c1)S(=O)(=O)c1ccc2ccccc2c1` [4jc117-3 13ab], the values for the Ki in assay [1] (setting [3]) and in assay [2] were 13.8 ± 1.32 µM and 43.1 ± 14.7 µM, respectively.
Turning to `Cc1cc(Oc2ccc(N(Cc3ccccc3)S(=O)(=O)c3cc(C(=O)O)c(O)c4ccccc34)cc2)cc(C)c1Cl` [3bl; JY-5-380], in assay [1], the “Mcl-1 Exp ΔG” value is -10.24 kcal/mol. In addition, the “Bcl-xL Exp ΔG” value in assay [2] was -8.82 kcal/mol.
In the same order, the values of `CC(C)CN(c1ccc(OC(C)C)cc1)S(=O)(=O)c1cc(C(=O)O)c(O)c2ccccc12` [3ba; MEL-2-116] are -8.61 kcal/mol and -7.11 kcal/mol.
For the molecule `O=C(O)c1cc(S(=O)(=O)Nc2cccc(Br)c2)c2ccccc2c1O` [Compound 3n, 4-(N-(3-Bromophenyl)sulfamoyl)-1-hydroxy-2-naphthoic Acid], the Ki in assay [1] (setting [3]) stood at 5.64 ± 1.76 µM.
As to `N#Cc1ccc(NS(=O)(=O)c2cc(C(=O)O)c(O)c3ccccc23)cc1` [3ab; TA-1-018], in assay [1], the “Mcl-1 Exp ΔG” value was -6.35 kcal/mol.
On the same count and under the same terms, the value for `O=C(O)c1cc(S(=O)(=O)Nc2ccccc2Br)c2ccccc2c1O` [3m; TA-1-019] was -7.04 kcal/mol.
Regarding `O=C(O)c1cc(S(=O)(=O)NCc2cccc(Cl)c2)c2ccccc2c1O` [Compound 3e, 4-(N-(3-Chlorobenzyl)sulfamoyl)-1-hydroxy-2-naphthoic Acid], the Ki in assay [1] (setting [3]) is 5.03 ± 2.78 µM.
On to `O=C(O)C1Cc2ccccc2N(S(=O)(=O)c2ccc(-c3ccccc3)cc2)C1` (racemic) [±-8d], for which the Ki is more than 500 µM in assay [1] (FPC assay, read-out: Mcl-1 Ki) and more than 500 µM in assay [1] (setting [3]).
As to `O=C(O)C1Cc2ccccc2N(S(=O)(=O)c2ccc(F)cc2)C1` (racemic) [±-8c], in assay [1] (setting [3]), the Ki was 176 ± 115 µM.
For `O=C(O)c1cc(S(=O)(=O)Nc2ccccc2-c2ccccc2)c2ccccc2c1O` [3r; LC-4-002], in assay [1], the “Mcl-1 Exp ΔG” value is -6.91 kcal/mol.
Consider `CC(C)CN(c1ccc(C(=O)Oc2ccccc2)c(O)c1)S(=O)(=O)c1ccc(Oc2ccccc2)cc1` [LC-4-134 21], for which the Ki in assay [1] (setting [3]) is more than 500 µM.
Take `O=C(O)C1Cc2ccccc2N(S(=O)(=O)c2ccccc2)C1` (racemic) [±-8a]: the Ki in assay [1] (FPC assay, read-out: Mcl-1 Ki) was 193 µM; in assay [1] (setting [3]), 193 ± 24 µM.
As for `CN(C)S(=O)(=O)c1cc(C(=O)O)c(O)c2ccccc12` [3h; SF-5-295], in assay [1], the “Mcl-1 Exp ΔG” value was -6.26 kcal/mol.
On to `O=C(O)c1cc(S(=O)(=O)NCc2ccccc2Cl)c2ccccc2c1O` [Compound 3d, 4-(N-(2-Chlorobenzyl)sulfamoyl)-1-hydroxy-2-naphthoic Acid], for which, in assay [1] (setting [3]), the Ki came out at 50.3 ± 11.8 µM.
On to `COC(=O)c1cc(S(=O)(=O)N(CC(C)C)c2ccc(Br)cc2)c2ccccc2c1O` [Compound 3cb, Methyl 4-(N-(4-bromophenyl)-N-isobutylsulfamoyl)-1-hydroxy-2-naphthoate], for which, in assay [1] (setting [3]), the Ki is more than 500 µM. In addition, in assay [1], the “Mcl-1 Exp ΔG” value is more than -4.50 kcal/mol.
Consider `O=C(O)c1cc(S(=O)(=O)N2CCN(c3ccccc3)CC2)c2ccccc2c1O` [Compound 3j, 1-Hydroxy-4-((4-phenylpiperazin-1-yl)sulfonyl)-2-naphthoic Acid], for which the Ki in assay [1] (setting [3]) was 4.54 ± 3.86 µM.
In the case of `CC(C)CN(c1ccc(C(=O)O)c(O)c1)S(=O)(=O)c1ccc2ccccc2c1` [Compound 4jc117-3, 2-hydroxy-4-(N-isobutylnaphthalene-2-sulfonamido)benzoic acid], in assay [1] (fluorescence polarization competition assay, read-out: Ki (μM) Mcl-1), the inhibition constant Ki was determined as 60.3 ± 24.4 µM.
`N#Cc1ccc(NS(=O)(=O)c2cc(C(=O)O)c(O)c3ccccc23)cc1` [Compound 3ab, 4-(N-(4-Cyanophenyl)sulfamoyl)-1-hydroxy-2-naphthoic Acid]: in assay [1] (setting [3]), the Ki is 22.2 ± 1.6 µM.
Consider `O=C(O)c1cc(S(=O)(=O)Nc2ccc(-c3ccccc3)cc2)c2ccccc2c1O` [3t; LC-3-192], for which the “Mcl-1 Exp ΔG” value in assay [1] was -7.93 kcal/mol.
As to `O=C(O)c1ccc2c(c1)CCCN2S(=O)(=O)c1ccc(Br)cc1` [LC-3-004, 1-((4-bromophenyl)sulfonyl)-1,2,3,4-tetrahydroquinoline-6-carboxylic acid], the Ki in assay [1] (setting [3]) was found to be 203 µM.
`CC(C)CN(c1ccc(C(=O)O)c(O)c1)S(=O)(=O)c1ccc(Br)cc1` [LC-5-012 13ae]: the Ki in assay [1] (setting [3]) turned out to be 17 ± 1.5 µM.
Regarding `Cc1ccc(NS(=O)(=O)c2cc(C(=O)O)c(O)c3ccccc23)cc1` [Compound 3x, 1-Hydroxy-4-(N-(p-tolyl)sulfamoyl)-2-naphthoic Acid], the Ki in assay [1] (setting [3]) is 34.3 ± 1 µM.
On the same count and under the same terms, with `CC(C)CN(c1cccc(C(=O)O)c1)S(=O)(=O)c1ccccc1` [4jc177-1 18aa] the figure was more than 500 µM; with `Cc1ccc(Oc2ccc(S(=O)(=O)N(CC(C)C)c3ccc(C(=O)O)c(O)c3)cc2)cc1` [LC-4-119 13ah], 2.25 ± 0.168 µM; with `CC(C)CN(c1cccc(C(=O)O)c1)S(=O)(=O)c1ccc(F)cc1` [4jc177-6 18ad], more than 500 µM.
On to `O=C(O)c1cc(S(=O)(=O)Nc2ccc(Cl)cc2)c2ccccc2c1O` [Compound 3v, 4-(N-(4-Chlorophenyl)sulfamoyl)-1-hydroxy-2-naphthoic Acid], for which, in assay [1] (setting [3]), the Ki was determined as 1.91 ± 0.26 µM.
As for `O=C(O)c1cc(S(=O)(=O)Nc2ccc(C(F)(F)F)cc2)c2ccccc2c1O` [3w; 5JC73-1], the “Mcl-1 Exp ΔG” value in assay [1] is -7.64 kcal/mol.
On to `O=C(O)C1Cc2ccccc2N(S(=O)(=O)c2ccc(F)cc2)C1` (racemic) [SF-5-136, (±)-1-((4-fluorophenyl)sulfonyl)-1,2,3,4-tetrahydroquinoline-3-carboxylic acid], for which, in assay [1] (read-out: Mcl-1 Ki), the Ki was more than 1000 µM.
Regarding `CC(C)Oc1ccc(NS(=O)(=O)c2cc(C(=O)O)c(O)c3ccccc23)cc1` [3aa; SF-5-293], the “Mcl-1 Exp ΔG” value in assay [1] is -5.82 kcal/mol.
Take `O=C(O)c1cc(S(=O)(=O)Nc2ccc(Cl)cc2)c2ccccc2c1O` [3v; 5JC67]: the “Mcl-1 Exp ΔG” value in assay [1] is -7.80 kcal/mol.

Usually Ki stands for a dissociation constant, usually derived from enzyme kinetics or from competition with a known ligand.
